Patent publication EP2435019B1, “DODECA-2E,4E-DIENE AMIDES AND THEIR USE AS MEDICAMENTS AND COSMETICS” (Dr. August Wolff GmbH & Co. KG Arzneimittel, priority 2009, dated 2010)

Legend:
[1] = test system: TNF-alpha release; assay: LPS-induced TNF-alpha release from human macrophages (ELISA); type: cell-based; conditions: Figure 4; LPS 500 ng/ml; 5 µM for 18 h
Procedure: • Figure 1: AEA re-uptake inhibition of 2E,4E-dieneamides 1 and 9 into human primary monocytes and U937 cells. […] Data are mean values ± SEM of 3 independent experiments in a sigmoidal dose-response curve. • Figure 2: Concentration-dependent effects of 4 and 5 on FAAH activity. […] The maximal inhibition (32%) of 5 was measured at 1 µM. Data are mean values ± SEM of 3 independent experiments. • Figure 3: Effects of low nM concentrations of N-alkylamide 7 on FAAH activity alone and in combination with the FAAH inhibitor URB597. […] Data are mean values ± SEM of 3 independent experiments. • Figure 4: 1 and 9 inhibit LPS-induced TNF-alpha release into culture medium (measured by ELISA). Human macrophages (10^6 cells) were stimulated with LPS (500 ng/ml) and treated with UCM707 and/or compounds 1 and 9 at 5 µM for 18 h. N = 3 ± SEM. • Figure 5: UCM707 (positive control) and compounds 1 and 9 diminish NO2^- production. Human macrophages (10^6 cells) were stimulated with LPS (500 ng/ml) and treated with UCM707 and/or compounds 1 and 9 at 5 µM for 18 h. Culture supernatants were assayed for nitrite levels, using the Griess reagent as a reflection of NO production. […]

[2] = test system: NO2^- production; assay: NO2- production in LPS-stimulated human macrophages (Griess reagent); type: cell-based; conditions: Figure 5; LPS 500 ng/ml; 5 µM for 18 h
Procedure: • Figure 1: AEA re-uptake inhibition of 2E,4E-dieneamides 1 and 9 into human primary monocytes and U937 cells. […] Data are mean values ± SEM of 3 independent experiments in a sigmoidal dose-response curve. • Figure 2: Concentration-dependent effects of 4 and 5 on FAAH activity. […] The maximal inhibition (32%) of 5 was measured at 1 µM. Data are mean values ± SEM of 3 independent experiments. • Figure 3: Effects of low nM concentrations of N-alkylamide 7 on FAAH activity alone and in combination with the FAAH inhibitor URB597. […] Data are mean values ± SEM of 3 independent experiments. • Figure 4: 1 and 9 inhibit LPS-induced TNF-alpha release into culture medium (measured by ELISA). Human macrophages (10^6 cells) were stimulated with LPS (500 ng/ml) and treated with UCM707 and/or compounds 1 and 9 at 5 µM for 18 h. N = 3 ± SEM. • Figure 5: UCM707 (positive control) and compounds 1 and 9 diminish NO2^- production. Human macrophages (10^6 cells) were stimulated with LPS (500 ng/ml) and treated with UCM707 and/or compounds 1 and 9 at 5 µM for 18 h. Culture supernatants were assayed for nitrite levels, using the Griess reagent as a reflection of NO production. Results are the mean ± SEM of four independent experiments performed in duplicate • Figure 6: In CB receptor expressing human HaCaT keratinocytes (10^6 cells) UCM707 (control) 1 and 9 like the endocannabinoid anandamide (each 5 µM) inhibited tolerogen (10 µg/ml) induced chemokine IL-8 (6h stimulation and incubation). N = 3 ± SEM.

[3] = target: T1, FAAH (Sus scrofa, UniProt Q9TUI8); assay: Fatty acid amide hydrolase (FAAH) inhibition, pig brain homogenate (assay D); type: biochemical; conditions: 1 µM; pig brain homogenate (assay D)
T1 construct: 165 µl of diluted pig brain homogenate; from tissue; host or cells: pig brain homogenate
T1 sequence (Q9TUI8 1-579): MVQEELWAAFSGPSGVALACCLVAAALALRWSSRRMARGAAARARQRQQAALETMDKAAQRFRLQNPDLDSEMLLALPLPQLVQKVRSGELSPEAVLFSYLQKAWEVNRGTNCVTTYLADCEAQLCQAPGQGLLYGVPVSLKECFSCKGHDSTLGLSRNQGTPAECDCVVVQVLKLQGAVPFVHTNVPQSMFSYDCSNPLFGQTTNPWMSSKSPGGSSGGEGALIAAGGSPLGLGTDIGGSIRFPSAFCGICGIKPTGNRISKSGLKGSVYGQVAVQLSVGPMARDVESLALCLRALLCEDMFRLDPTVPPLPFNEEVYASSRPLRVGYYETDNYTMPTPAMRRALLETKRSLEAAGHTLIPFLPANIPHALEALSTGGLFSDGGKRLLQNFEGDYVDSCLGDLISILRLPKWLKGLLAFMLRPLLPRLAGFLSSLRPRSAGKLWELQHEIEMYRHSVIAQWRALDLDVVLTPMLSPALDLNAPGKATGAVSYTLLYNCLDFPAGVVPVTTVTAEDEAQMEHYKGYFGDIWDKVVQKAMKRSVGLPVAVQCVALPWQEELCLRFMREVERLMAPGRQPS

[4] = test system: Arachidonoylethanolamide Transport (AEAT); assay: Cellular uptake of [3H]-AEA in U937 cells (assay C); type: cell-based, Human; conditions: Homo sapiens, U-937, read-out: EC50 value, AEA re-uptake inhibition
Procedure: 5x10^5 cells were collected and suspended in 500 µL of sterile PBS (Sigma, San Louis, MO, US) using glass silanized tubes. Cells were pre-incubated 10 min at 37°C in presence of test compounds in a concentration range of 10^-8 - 10^-4 M or in presence of the same amount of solvent (control). Then a mixture of 50 nM [^3H]-AEA (60 Ci/mmol) (American Radiolabeled Chemicals, Inc., San Louis, MO, US) and 50 nM of nonradioactive AEA (Tocris Cookson Ltd., Bristol, UK) was added and samples were incubated at 37°C for different times in the range of 1-60 min. The reaction was stopped by rapid filtration over Whatman GF/C filters pre-soaked in 0,25 % BSA. […] The filters-bound radioactivity was measured using a Beckman LS6500 scintillation counter. Results were expressed as % of AEA uptake versus cells treated with solvent and the EC50 and IC50 values were calculated from the sigmoidal curves, which were generated using the GraphPad Prism (GraphPad Software, San Diego, CA, US).

| Structure (SMILES) | LPS-induced TNF-alpha release into culture medium [1] | NO2^- production [2] | FAAH inhibition at 1 µM [3] | EC50 [4] |
| --- | --- | --- | --- | --- |
| CCCCCCC/C=C/C=C/C(=O)NCCO [Example 1, (2E,4E)-N-(2-hydroxyethyl)dodeca-2,4-diene amide] | inhibit | diminish | <10 % of control | 1230 ± 305 nM |
| CCCCCCC/C=C/C=C/C(=O)NCCc1cccc(OC)c1 [Example 9, (2E,4E)-N-(3-methoxyphenethyl)dodeca-2,4-diene amide] | inhibit | diminish | 14.63 ± 2.91 % of control | 869 ± 172 nM |
